Series [1] is described as follows: Storage in a humidity chamber at 25° C. (75%, 94% or 97% RH). The class given is physicochemical. The conditions noted are these: 25° C. and 94% RH for 88 hours. Here is the method: However, a large proportion of the peaks corresponding to compound (I) appear as broadened multiplets, probably due to the presence of the sulfonic acid group, making successful assignment non-trivial. A significant quantity of residual TBME was also visible, though this is believed to be unbound solvent rather than a solvate. XRPD analysis confirmed the material to be crystalline. […] Deliquescence of a sample of the product was observed after storage in a humidity chamber at 25° C. and 94% RH for 2 hours. […]

A short description of series [2]: Gravimetric vapour sorption (GVS) / hygroscopicity. The class given is physicochemical. Here is the method: Gravimetric Vapour Sorption (GVS)
Sorption isotherms were obtained using a SMS DVS Intrinsic moisture sorption analyser, controlled by SMS Analysis Suite software. […] The humidity was controlled by mixing streams of dry and wet nitrogen, with a total flow rate of 200 ml. min^−1. The relative humidity was measured by a calibrated Rotronic probe (dynamic range of 1.0-100% RH), located near the sample. The weight change, (mass relaxation) of the sample as a function of % RH was constantly monitored by the microbalance (accuracy ±0.005 mg). Typically 5-20 mg of sample was placed in a tared mesh stainless steel basket under ambient conditions. The sample was loaded and unloaded at 40% RH and 25° C. (typical room conditions). A moisture sorption isotherm was performed as outlined below (2 scans giving 1 complete cycle). The standard isotherm was performed at 25° C. at 10% RH intervals over a 0.5-90% RH range.
Method Parameters for SMS DVS Intrinsic Experiments:
The sample was recovered after completion of the isotherm and re-analysed by XRPD.
Hiden Isochema Moisture Sorption Analyser (IGAsorp)
Sorption isotherms were obtained using a Hiden Isochema Moisture Sorption Analyser (IGAsorp) controlled by IGAsorp Systems Software V6.50.48. […] The humidity was controlled by mixing streams of dry and wet nitrogen, with a total flow rate of 250 ml. min^−1. The instrument was verified for relative humidity content by measuring three calibrated Rotronic salt solutions (10-50-88%). The weight change of the sample as a function of % RH was monitored by microbalance (accuracy ±0.005 mg). A defined amount of sample was placed in a tared mesh stainless steel basket under ambient conditions. A full experimental cycle consisted of two scans (sorption and desorption) at a constant temperature (25° C.) and 10% RH intervals over a 10-90% RH range (90 minutes for each humidity level).
11.254 mg of sample was placed in a tarred mesh stainless steel basket under ambient conditions. A full experimental cycle consisted of two scans (sorption and desorption) at a constant temperature (25° C.) and 10% RH intervals over a 40-90% range (180 minutes for each humidity level). The mass increase of approximately 0.09 mg (−0.8%) and the facile uptake and loss relative to humidity level indicates a non-hygroscopic sample that dampens with surface moisture only.

The nature of series [3]: Rehydration under ambient conditions followed by TGA. The class given is physicochemical. The following applies: 8 mg sample in open TGA pan after heating to 100° C., ambient conditions (approximately 25° C. and 40% RH). The procedure: A sample of product was heated to 100° C., held for 10 minutes, cooled to 30° C., held for 5 minutes and then re-heated to 250° C. […] To investigate whether the phosphate salt exists as a hydrate under ambient conditions that can be reversibly dehydrated at temperature in the presence of air, a series of TGA experiments were undertaken to clarify how quickly the material rehydrates under ambient conditions. A series of samples were taken to 100° C. then cooled to 25° C. under nitrogen using the TGA equipment. The samples were stored under ambient conditions (RT in air) for varying times and then the TGA experiment was re-run. As a comparison a heat/cool/heat experiment was undertaken under an inert atmosphere of nitrogen using the TGA; a sample was heated to 100° C., cooled to 25° C. and heated to 100° C. for a second time.
Within 30 minutes an 8 mg sample of product in an open TGA pan had fully rehydrated.

The subject of series [4] is range of different cell lines. The conditions noted are these: cited from earlier work.
A further series deals with cyclin dependent kinases. The conditions noted are these: cited from earlier work.

Consider `CC[C@H](Nc1nc(NCc2cnc(C)cc2C)c2ncn(C(C)C)c2n1)[C@@H](C)O` [Form B], for which, in series [1], the XRPD after storage entry is given as “matched those acquired for the phosphate salt crystallised from ethanol” and the appearance after storage result was “no deliquescence was observed”. Moreover, in series [2], the “hygroscopicity” value is reported as “not to be hygroscopic”. In series [2] (GVS at 25° C.), the “XRPD of sample post GVS” value is recorded as “matched those acquired from product crystallised from ethanol”, the “uptake of water above 80% RH” value was approximately 1.5 weight % and the “water lost upon taking to 0% RH” value turned out to be 0.5 weight %. Further, in series [2] (GVS at 40° C.), the “XRPD of sample post GVS” value is given as “matched those acquired from product crystallised from ethanol”, the “uptake of water above 80% RH” value is listed as approximately 2 weight % and the “water lost upon taking to 0% RH” value is approximately 2.6 weight %. The “time to full rehydration” value in series [3] was not above 30 min.
Turning to `CC[C@H](Nc1nc(NCc2cnc(C)cc2C)c2ncn(C(C)C)c2n1)[C@@H](C)O` [compound (I)], the “potency in cellular toxicity studies” value in series [4] is “surprisingly high potency”. Besides, in the series with cyclin dependent kinases, the CDK inhibitory activity entry was “potent”.

The values above are taken from patent publication US8889861B2, “Crystalline forms of a purine derivative” (Cyclacel Limited, priority 2010, dated 2014).
